# Results taken from patent publication US8541572B2.
# System: TNF-α production in LPS-stimulated human whole blood
# Experiment: Inhibition of TNF-α production from human whole blood (hWBA)
# Format: cell-based
# Settings: Homo sapiens, IC50 for TNF-α production, LPS-stimulated human whole blood; read-out: hWBA
row,Compound,IC50
1,COc1ccc2c(c1)C(=O)N(C[C@@]1(C#Cc3cccnc3N3CCOCC3)NC(=O)NC1=O)C2 [Compound 2287],633 nM
2,COc1ccc2c(c1)C(=O)N(C[C@@]1(C#Cc3ccc(N4CCCCC4=O)cc3)NC(=O)NC1=O)C2 [Compound 2295],1390 nM
3,COc1ccc2c(c1)C(=O)N(C[C@@]1(C#Cc3ccc(C(=O)NS(C)(=O)=O)nc3)NC(=O)NC1=O)C2 [Compound 902],1370 nM
4,COc1ccc2c(c1)C(=O)N(CC1(C#Cc3cccnc3NCCN(C)C)NC(=O)NC1=O)C2 (stereo not shown) [Compound 2286],2000 nM
5,COc1ccc2c(c1)C(=O)N(C[C@@]1(C#Cc3ccc(CC4(C)NC(=O)NC4=O)cc3)NC(=O)NC1=O)C2 (stereo partly shown) [Compound 2281],1000 nM
6,COc1ccc2c(c1)C(=O)N(C[C@@]1(C#Cc3ccc(C4(C)NC(=O)NC4=O)cc3C)NC(=O)NC1=O)C2 (stereo partly shown) [Compound 2257],490 nM
7,CCN1CCN(C(=NO)c2ccc(C#C[C@]3(CN4Cc5ccc(OC)cc5C4=O)NC(=O)NC3=O)cc2)CC1 [Compound 911],20 nM
8,COc1ccc2c(c1)C(=O)N(C[C@@]1(C#Cc3cncc(C(=O)NN)c3)NC(=O)NC1=O)C2 [Compound 2255],432 nM

# Same assay, conditions: Homo sapiens, IC50 for inhibition of TNF-α production, LPS-stimulated human whole blood; read-out: hWBA
row,Compound,IC50
1,COc1ccc2c(c1)C(=O)N(C[C@@]1(C#Cc3cnc(C)nc3O)NC(=O)NC1=O)C2 [Compound 2231],1130 nM
2,COc1ccc2c(c1)C(=O)N(C[C@@]1(C#Cc3cncc(-c4cc[nH]n4)c3)NC(=O)NC1=O)C2 [Compound 2234],678 nM
3,COc1ccc2c(c1)C(=O)N(C[C@@]1(C#Cc3ccc(-n4ccnc4)cc3)NC(=O)NC1=O)C2 [Compound 1160],786 nM
4,COc1ccc2c(c1F)C(=O)N(C[C@@]1(C#Cc3ccc(-c4nc(-c5cccnc5)ccc4O)c(F)c3)NC(=O)NC1=O)C2 [Compound 1002],119 nM
5,COc1ccc2c(c1)C(=O)N(C[C@@]1(C#Cc3ccc(CCNC(=O)C(F)(F)F)s3)NC(=O)NC1=O)C2 [Compound 2221],930 nM
6,COc1ccc2c(c1)C(=O)N(C[C@@]1(C#Cc3ccc(C(c4ccc[nH]4)c4ccc[nH]4)cc3)NC(=O)NC1=O)C2 [Compound 2201],1200 nM
7,CSc1ccc2c(c1)C(=O)N(C[C@@]1(C#Cc3cccnc3)NC(=O)NC1=O)C2 [Compound 312],651 nM

# Same assay, conditions: Homo sapiens, read-out: hWBA (nM)
row,Compound,IC50
1,COc1ccc2c(c1F)C(=O)N(C[C@@]1(C#Cc3ccc(C4(C#N)CCN(C)CC4)cc3)NC(=O)NC1=O)C2 [Compound 1313],669 nM

# Same assay, conditions: IC50 for TNF-α production, LPS-stimulated human whole blood; read-out: hWBA
row,Compound,IC50
1,COc1ccc2c(c1)C(=O)N(C[C@@]1(C#Cc3ccc(/C=N\Nc4ccccc4)cc3)NC(=O)NC1=O)C2 [Compound 935],1220 nM
2,COc1ccc2c(c1)C(=O)N(C[C@]1(C#Cc3ccc(C(=O)O)s3)NC(=O)NC1=O)C2 [Compound 905],10000 nM
3,COc1ccc2c(c1)C(=O)N(C[C@@]1(C#Cc3ccc(NCCN(C)C)nc3)NC(=O)NC1=O)C2 [Compound 2289],419 nM
4,COc1ccc2c(c1)C(=O)N(C[C@@]1(C#Cc3ccc(C4(C)NC(=O)NC4=O)s3)NC(=O)NC1=O)C2 (stereo partly shown) [Compound 907],208 nM
5,CCN1CCN(C(=NO)c2ccc(C#C[C@]3(CN4CCc5cc(OC)ccc5C4=O)NC(=O)NC3=O)cc2)CC1 [Compound 2316],335 nM
6,COc1ccc2c(c1)C(=O)N(C[C@@]1(C#Cc3ccc(C(=NO)N4CCNC[C@@H]4C)cc3)NC(=O)NC1=O)C2 [Compound 2293],84 nM
7,COc1ccc2c(c1)C(=O)N(C[C@@]1(C#Cc3ccc(C(=NO)N4CCC(=O)CC4)cc3)NC(=O)NC1=O)C2 [Compound 945],86 nM
8,COc1ccc2c(c1)C(=O)N(C[C@@]1(C#Cc3cccc(C(=NO)N4CCN(C)CC4)c3)NC(=O)NC1=O)C2 [Compound 915],221 nM
9,COc1ccc2c(c1)C(=O)N(C[C@@]1(C#Cc3cncc(C(=NO)N4CCCN(C)CC4)c3)NC(=O)NC1=O)C2 [Compound 924],1320 nM
10,COc1ccc2c(c1)C(=O)N(C[C@@]1(C#Cc3cncc(-c4noc(C(N)=O)n4)c3)NC(=O)NC1=O)C2 [Compound 2254],713 nM
11,COc1ccc2c(c1)C(=O)N(C[C@@]1(C#Cc3ccc(C(=NO)N4CCC4)cc3)NC(=O)NC1=O)C2 [Compound 914],186 nM
12,COc1ccc2c(c1)C(=O)N(C[C@]1(C#Cc3cnc(N)c(C(=O)O)c3)NC(=O)NC1=O)C2 [Compound 903],1000 nM
13,COc1ccc2c(c1)CCN(C[C@@]1(C#Cc3ccc(C(=NO)N4CCOCC4)cc3)NC(=O)NC1=O)C2=O [Compound 2319],1060 nM
14,COc1ccc2c(c1)C(=O)N(C[C@@]1(C#Cc3ccc(C(=NO)N4[C@H](C)CNC[C@@H]4C)cc3)NC(=O)NC1=O)C2 [Compound 2294],327 nM
15,COC(=O)C(c1ccc(C#C[C@]2(CN3Cc4ccc(OC)cc4C3=O)NC(=O)NC2=O)cc1)N1CCCNCC1 (stereo partly shown) [Compound 2271],566 nM
16,COc1ccc2c(c1)C(=O)N(C[C@@]1(C#Cc3ccc(C(=NO)N4CCN(C)CC4)nc3)NC(=O)NC1=O)C2 [Compound 953],87 nM
17,COc1ccc2c(c1)C(=O)N(C[C@@]1(C#Cc3ccc(-c4cn[nH]c4)nc3)NC(=O)NC1=O)C2 [Compound 2292],372 nM
18,COc1ccc2c(c1)C(=O)N(C[C@@]1(C#Cc3ccc(-c4ncccc4O)cc3)NC(=O)NC1=O)C2 [Compound 934],117 nM

# Same assay, conditions: IC50 for inhibition of TNF-α production, LPS-stimulated human whole blood; read-out: hWBA
row,Compound,IC50
1,COc1ccc2c(c1)C(=O)N(C[C@@]1(C#Cc3ccc(-c4ccc(C)nc4O)nc3)NC(=O)NC1=O)C2 [Compound 1301],766 nM
2,COc1ccc2c(c1)C(=O)N(C[C@@]1(C#Cc3ccc(N4C(=O)CCC4(C(=O)O)C(C)(C)O)nc3)NC(=O)NC1=O)C2 (stereo partly shown) [Compound 1906],578 nM
3,COc1ccc2c(c1F)C(=O)N(C[C@@]1(C#Cc3cncc(NC(=O)C4CCN(C)CC4)c3)NC(=O)NC1=O)C2 [Compound 1907],86 nM
4,COc1ccc2c(c1F)C(=O)N(C[C@@]1(C#Cc3ccc(-c4nc(N5CCC(=O)CC5)ccc4O)cc3)NC(=O)NC1=O)C2 [Compound 1003],124 nM
5,COc1ccc2c(c1F)C(=O)N(C[C@@]1(C#Cc3ccc(/C(=N/O)N4CCNC[C@@H]4C)c(F)c3)NC(=O)NC1=O)C2 [Compound 1309],42 nM
6,COc1ccc2c(c1F)C(=O)N(C[C@@]1(C#Cc3ccc(N4CCNCC4)cc3)NC(=O)NC1=O)C2 [Compound 1706],118 nM
7,COc1ccc2c(c1)C(=O)N(C[C@@]1(C#Cc3ccc(N4CCC(=O)CC4)nc3)NC(=O)NC1=O)C2 [Compound 2211],1000 nM
8,COc1ccc2c(c1)C(=O)N(C[C@@]1(C#Cc3ccc(Nc4c(NCCN(C)C)c(=O)c4=O)cc3)NC(=O)NC1=O)C2 [Compound 1307],161 nM
9,COc1ccc2c(c1)C(=O)N(C[C@@]1(C#Cc3ccc([C@@]4(CN5Cc6ccc(OC)cc6C5=O)NC(=O)NC4=O)cc3)NC(=O)NC1=O)C2 [Compound 2217],849 nM
10,COc1ccc2c(c1F)C(=O)N(C[C@@]1(C#Cc3ccc4c(=O)[nH][nH]c4c3)NC(=O)NC1=O)C2 [Compound 301],226 nM
11,COc1ccc2c(c1)C(=O)N(C[C@@]1(C#Cc3cncc(-c4ccc(C(N)=O)cc4)c3)NC(=O)NC1=O)C2 [Compound 2208],361 nM
12,COc1ccc2c(c1)C(=O)N(C[C@@]1(C#Cc3cncc(NC(C)=O)c3)NC(=O)NC1=O)C2 [Compound 2242],444 nM
13,CCN1CCN(C(C)c2ccc(C#C[C@]3(CN4Cc5ccc(OC)c(F)c5C4=O)NC(=O)NC3=O)cc2)CC1 (stereo partly shown) [Compound 984],695 nM
14,COc1ccc2c(c1)C(=O)N(C[C@@]1(C#Cc3ccc(-c4cnccc4C)nc3)NC(=O)NC1=O)C2 [Compound 1100],2390 nM
15,COc1ccc2c(c1)C(=O)N(C[C@@]1(C#Cc3ccc4[nH]nc(N)c4c3)NC(=O)NC1=O)C2 [Compound 2237],520 nM
16,COc1ccc2c(c1)C(=O)N(C[C@@]1(C#Cc3ccc(-c4nc(-c5cnn(C)c5)ccc4O)cc3)NC(=O)NC1=O)C2 [Compound 973],61 nM
17,COc1ccc2c(c1F)C(=O)N(C[C@@]1(C#Cc3ccc(CN4CCOCC4)nc3)NC(=O)NC1=O)C2 [Compound 965],698 nM
18,CCN1CCN(c2cccc(-c3ccc(C#C[C@]4(CN5Cc6ccc(OC)c(F)c6C5=O)NC(=O)NC4=O)cc3)n2)CC1 [Compound 991],606 nM
19,COc1ccc2c(c1)C(=O)N(C[C@@]1(C#Cc3ccc(-c4nc(-c5ccncc5)ccc4O)cc3)NC(=O)NC1=O)C2 [Compound 970],65 nM
20,COc1ccc2c(c1F)C(=O)N(C[C@@]1(C#Cc3ccc(N4C(=O)NC5(CC5)C4=O)c(F)c3)NC(=O)NC1=O)C2 [Compound 1317],148 nM
21,COc1ccc2c(c1F)C(=O)N(C[C@@]1(C#Cc3ccc(-c4cccc(N5CCOCC5)n4)cc3)NC(=O)NC1=O)C2 [Compound 995],1640 nM
22,COc1ccc2c(c1F)C(=O)N(C[C@@]1(C#Cc3ccc(CN4CCc5ccc(F)cc5C4)nc3)NC(=O)NC1=O)C2 [Compound 968],4980 nM
23,COc1ccc2c(c1)C(=O)N(C[C@@]1(C#Cc3cnc4nc(O)oc4c3)NC(=O)NC1=O)C2 [Compound 2244],574 nM
24,COc1ccc2c(c1)C(=O)N(C[C@@]1(C#Cc3ccc(C4(CNS(C)(=O)=O)NC(=O)NC4=O)cc3)NC(=O)NC1=O)C2 (stereo partly shown) [Compound 1110],176 nM
25,COc1ccc2c(c1F)C(=O)N(C[C@@]1(C#Cc3ccc4c(c3)C3(CC4)NC(=O)NC3=O)NC(=O)NC1=O)C2 (stereo partly shown) [Compound 1304],367 nM
26,COc1ccc2c(c1)C(=O)N(C[C@@]1(C#Cc3cncc(NC(=O)C4CCN(C)CC4)c3)NC(=O)NC1=O)C2 [Compound 1908],299 nM
27,COc1ccc2c(c1)C(=O)N(C[C@@]1(C#Cc3nc(N4C(=O)CCC4C)ccc3OC)NC(=O)NC1=O)C2 (stereo partly shown) [Compound 1506],9540 nM
28,CCN1CCN(c2ccc(OC)c(-c3ccc(C#C[C@]4(CN5Cc6ccc(OC)cc6C5=O)NC(=O)NC4=O)cc3)n2)CC1 [Compound 972],573 nM
29,COc1ccc2c(c1)C(=O)N(C[C@@]1(C#Cc3ccc(C4(CN5Cc6cc(O)ccc6C5=O)NC(=O)NC4=O)cc3)NC(=O)NC1=O)C2 (stereo partly shown) [Compound 2216],419 nM
30,COc1ccc2c(c1)C(=O)N(C[C@@]1(C#Cc3c(C)ncc(C(=O)O)c3O)NC(=O)NC1=O)C2 [Compound 2232],699 nM
